Experimental findings from PubChem BioAssay (NCI) are described below.

Molecules are shown by their SMILES. Where “and” joins values, the source holds several entries; their conditions need not be identical. Identical values can stand only once.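 Interpolation was linear, between the two tested concentrations surrounding the appropriate level; five concentrations were tested over 48 hours in 96-well plates. At the GI50, growth is halved. TGI marks complete inhibition of growth.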 Some results are limits rather than exact numbers.

Among the test systems are IGROV1 ovarian; UO-31 renal; HOP-92 NSCLC; COLO 205 colon; SNB-75 CNS; M14 melanoma; HCT-15 colon; NCI-H23 lung; NCI-H522 lung; RPMI-8226 leukemia.
Assay in all cases: NCI-60 cell line screen, 48 h

For the molecule `COc1ccccc1OCC(COC(=O)Nc1ccc(C)cc1)OC(=O)Nc1ccc(C)cc1` (stereo not given), the TGI in the experiment on IGROV1 ovarian was determined as 60.1 µM; with UO-31 renal, 34.3 µM; in the experiment with HOP-92 NSCLC it was 29 µM; with COLO 205 colon, 32.4 µM; in the experiment on SNB-75 CNS, 69.1 µM; in the experiment with M14 melanoma, 46.2 µM. The TGI in the experiment on HCT-15 colon came out at 29.9 µM; in the experiment on NCI-H23 lung it was 63.7 µM; in the experiment on NCI-H522 lung, 31.5 µM; in the experiment on RPMI-8226 leukemia, 38.8 µM.

Turning to `CCOC(=O)c1cc2cc([N+](=O)[O-])ccc2oc1=O`, the TGI with IGROV1 ovarian, in the experiment with UO-31 renal, in the experiment with HOP-92 NSCLC, in the experiment on COLO 205 colon, with SNB-75 CNS and with M14 melanoma was greater than 100 µM throughout. For the same molecule, the TGI with HCT-15 colon, with NCI-H23 lung, with NCI-H522 lung and in the experiment with RPMI-8226 leukemia was greater than 100 µM throughout.

With `O=C(N/N=C\c1cc(Cl)ccc1O)N/N=C/c1cc(Cl)ccc1O`, the GI50 was 1.56 µM with IGROV1 ovarian; 0.489 µM in the experiment with UO-31 renal; 0.99 µM in the experiment on HOP-92 NSCLC; 4.92 µM in the experiment on COLO 205 colon; 0.969 µM with SNB-75 CNS; 5.24 µM in the experiment on M14 melanoma. In addition, the GI50 is 0.676 µM with HCT-15 colon, 2.34 µM in the experiment with NCI-H23 lung, 0.616 µM in the experiment on NCI-H522 lung and 2.79 µM with RPMI-8226 leukemia. The TGI in the experiment on IGROV1 ovarian is greater than 100 µM; in the experiment on UO-31 renal, greater than 100 µM; with HOP-92 NSCLC, 9.48 µM; with COLO 205 colon it was greater than 100 µM; in the experiment with SNB-75 CNS, greater than 100 µM; in the experiment with M14 melanoma, greater than 100 µM. For the same molecule, the TGI in the experiment on HCT-15 colon is greater than 100 µM; with NCI-H23 lung, greater than 100 µM; with NCI-H522 lung, 19 µM; in the experiment on RPMI-8226 leukemia, greater than 100 µM.

As for `COc1ccccc1OCC(O)CO` (stereo not given), the GI50 in the experiment with IGROV1 ovarian, with UO-31 renal, in the experiment on HOP-92 NSCLC, with COLO 205 colon, in the experiment on SNB-75 CNS and in the experiment with M14 melanoma was greater than 100 µM throughout. Further, the GI50 in the experiment with HCT-15 colon, in the experiment with NCI-H23 lung, with NCI-H522 lung and in the experiment with RPMI-8226 leukemia was greater than 100 µM each time. Moreover, the TGI with IGROV1 ovarian, in the experiment on UO-31 renal, in the experiment with HOP-92 NSCLC, with COLO 205 colon, in the experiment on SNB-75 CNS and with M14 melanoma was greater than 100 µM throughout. Moreover, the TGI in the experiment on HCT-15 colon, with NCI-H23 lung, with NCI-H522 lung and with RPMI-8226 leukemia was greater than 100 µM in each case.

In the case of `O=C(O)CNS(=O)(=O)c1ccc(NC(=O)c2cccc([N+](=O)[O-])c2)cc1`, the TGI in the experiment on IGROV1 ovarian, with UO-31 renal, with HOP-92 NSCLC, in the experiment on COLO 205 colon, in the experiment on SNB-75 CNS and in the experiment on M14 melanoma was greater than 100 µM each time. For the same molecule, the TGI in the experiment with HCT-15 colon, in the experiment on NCI-H23 lung, in the experiment with NCI-H522 lung and with RPMI-8226 leukemia was greater than 100 µM in each case.

For the molecule `COS(=O)CCOC(=O)c1ccccc1SSc1ccccc1C(=O)OCCS(=O)OC` (stereo not given), the TGI in the experiment with IGROV1 ovarian is greater than 100 µM; in the experiment with UO-31 renal it was 43.5 µM; in the experiment with HOP-92 NSCLC, 74.2 µM; with COLO 205 colon it was 49.1 µM; with SNB-75 CNS it was 70.2 µM; in the experiment with M14 melanoma, 57.8 µM. Also, the TGI was found to be 85.9 µM in the experiment with HCT-15 colon, 44.4 µM in the experiment on NCI-H23 lung, 18.6 µM with NCI-H522 lung and 57.7 µM with RPMI-8226 leukemia.

For `O=c1c2c(=NCCCN3CCCC3)cc3c(=O)n(CCCN4CCCC4)c(=O)c4c(NCCCN5CCCC5)cc(c(O)n1CCCN1CCCC1)c2c4-3`, the GI50 was 3.51 µM in the experiment on IGROV1 ovarian; 4.5 µM with UO-31 renal; 2.15 µM in the experiment with HOP-92 NSCLC; 1.89 µM with COLO 205 colon; 1.64 µM in the experiment with SNB-75 CNS; 6.86 µM with M14 melanoma. In addition, the GI50 was 6.91 µM in the experiment with HCT-15 colon, 5.43 µM with NCI-H23 lung, 1.44 µM with NCI-H522 lung and 4.39 µM in the experiment with RPMI-8226 leukemia. Moreover, the TGI with IGROV1 ovarian stood at 12 µM; with UO-31 renal, 22 µM; in the experiment with HOP-92 NSCLC it was 18.8 µM; with COLO 205 colon, 4.21 µM; in the experiment with SNB-75 CNS it was 4.1 µM; with M14 melanoma, 20.3 µM. Further, the TGI with HCT-15 colon is greater than 100 µM; in the experiment on NCI-H23 lung it was 24.1 µM; in the experiment on NCI-H522 lung, 5.53 µM; with RPMI-8226 leukemia, 45.8 µM.

For `O=C(O)C(O)C(O)C1[O][Sb][O]C1CO` (stereo not given), the GI50 in the experiment with IGROV1 ovarian, with UO-31 renal, in the experiment with HOP-92 NSCLC, in the experiment with COLO 205 colon, with SNB-75 CNS and in the experiment with M14 melanoma was greater than 100 µM throughout. The GI50 is greater than 100 µM in the experiment with HCT-15 colon; greater than 100 µM in the experiment on NCI-H23 lung; > 100 µM and 14 µM in the experiment with NCI-H522 lung; greater than 100 µM in the experiment with RPMI-8226 leukemia. Also, the TGI with IGROV1 ovarian, with UO-31 renal, in the experiment with HOP-92 NSCLC, in the experiment on COLO 205 colon, in the experiment on SNB-75 CNS and with M14 melanoma was greater than 100 µM throughout. The TGI in the experiment with HCT-15 colon was greater than 100 µM; in the experiment with NCI-H23 lung, greater than 100 µM; in the experiment with NCI-H522 lung it was > 100 µM and 38.9 µM; in the experiment on RPMI-8226 leukemia it was greater than 100 µM.

Consider `CC(C)c1cc2c(O)c(c1)Cc1cc(C(C)C)cc(c1O)Cc1cc(C(C)C)cc(c1O)Cc1cc(C(C)C)cc(c1O)Cc1cc(C(C)C)cc(c1O)Cc1cc(C(C)C)cc(c1O)C2`, for which the TGI with IGROV1 ovarian, in the experiment with UO-31 renal, with HOP-92 NSCLC, in the experiment on COLO 205 colon, in the experiment on SNB-75 CNS and with M14 melanoma was greater than 100 µM in each case. Further, the TGI in the experiment with HCT-15 colon, in the experiment with NCI-H23 lung, in the experiment with NCI-H522 lung and in the experiment on RPMI-8226 leukemia was greater than 100 µM each time.
